“Also recorded” adds a separate entry of the source.
Columns and labels:
[1] = test system: CaNT murine adenocarcinoma; design: species or system CBA/Gy fTO mice; details: mouse
[2] = In vitro metabolism by rat liver microsomes under hypoxic or oxic conditions
[3] = test system: EMT6 mouse mammary carcinoma cells
hypoxic cells = details: Wilson et al., 1992; cited from earlier work

SMILES	potentiation of in vivo cytotoxicity by hydralazine [1]	activity compared to radiation, with concomitant hydralazine ([1]; in vivo)	in vivo toxicity	dependence of rate of metabolism on amount of cyt P450 ([2]; hypoxia, NADPH 1 mM, microsomes 2.0-5.2 nmol cyt P450/ml)	metabolism ([2]; in air or in the presence of boiled microsomes)	metabolism with NADPH ([2]; in the presence of NADPH, microsomes, hypoxia)	major enzyme responsible for activation ([2]; microsomal bioreductive activation)	effect of CO on reductive metabolism ([2]; microsomes 2.9 nmol cyt P450/ml, NADPH 1 mM, hypoxia)	metabolism ([2]; microsomes and cofactors NADH or NADPH, under hypoxia)	conditions required for conversion to an activated alkylating species ([2]; rat liver microsomes, cofactors, inhibitors)	effect of hypoxia and lowered pH on cytotoxicity [3]	effect of lowered extracellular pH on activity [3]	toxicity with reducing enzymes under hypoxia [3]	ability to diffuse into the extravascular compartment of tumors (hypoxic cells)	selectivity for hypoxic cells (hypoxic cells)
O=C(O)CCCc1ccc(N(CCCl)OCCCl)cc1 [CHL-HD, 4-[p-(N-2-chloroethoxy N-2-chloroethylamino)phenyl] butanoic acid]	potentiated by the administration of hydralazine 5 min prior or 30 post; also recorded: potentiated by hydralazine	enhanced activity as compared to radiation	minimal in vivo toxicity	there is a relationship between the amount of cyt P450 in the metabolic reaction mixture and the rate of metabolism	very little if any metabolism	metabolism occurs more readily at lower concentrations of cofactor	appears to be cyt P450	CO inhibits the ability of microsomes to metabolize CHL-HD	is metabolized	reducing enzymes, co-factors and hypoxia were needed to activate CHL-HD to an alkylating species; also recorded: requires hypoxia and reducing enzymes and cofactors	both hypoxia and lowered pH in the presence of reducing enzymes potentiate to cytotoxicity	enhance when the extracellular pH is lowered below the physiological 7.4	greater toxicity with reducing enzymes under hypoxia	–	–
C[N+](C)([O-])CCCNc1c2ccccc2nc2cccc([N+](=O)[O-])c12 [SN 24030]	–	–	–	–	–	–	–	–	–	–	–	–	–	improved ability to diffuse into the extravascular compartment of tumors	approximately 1500 fold

— US5602278A (priority 1994, dated 1997)
